Patent US6329339A, “Pharmaceutical antiviral composition comprising glycyrrhizic acid and at least one protein endowed with antiviral activity” (priority 1997, dated 2001)

How the values were obtained:
[1] = tested on: infected cells, synthesis of proteins; conditions: even at doses of 4 mM; cited from earlier work
HSV1 [2] = conditions: 8 mM, cited from earlier work
HSV1 [3] = experiment: Inhibition of HSV1 viral plaques on VERO cells; format: cell-based, Herpes Simplex Virus type 1; conditions: for Inhibition (%) of viral plaques with various lysozymes: percentage of the control ± standard deviation
[4] = tested on: infected cells, synthesis of glyco-proteins; conditions: cited from earlier work
[5] = tested on: virus (viral replication); conditions: cited from earlier work
[6] = tested on: normal cells, synthesis of glyco-proteins; conditions: cited from earlier work
[7] = tested on: normal cells, synthesis of proteins; conditions: even at doses of 4 mM; cited from earlier work
[8] = tested on: human immunodeficiency virus; conditions: in vitro; cited from earlier work
HSV1 [9] = conditions: Arch. Virol. 1995; cited from earlier work
human cytomegalovirus = conditions: in vitro; cited from earlier work
[10] = in vivo, cited from earlier work
[11] = tested on: Herpes Simplex Virus type 1; conditions: cited from earlier work
[12] = Human alphaherpesvirus 1, Vero, read-out: Glycyrrhizic acid - Inhibition (%) of viral plaques

CC1(C)[C@@H](O[C@H]2O[C@H](C(=O)O)[C@@H](O)[C@H](O)[C@H]2O[C@@H]2O[C@H](C(=O)O)[C@@H](O)[C@H](O)[C@H]2O)CC[C@]2(C)[C@H]3C(=O)C=C4[C@@H]5C[C@@](C)(C(=O)O)CC[C@]5(C)CC[C@@]4(C)[C@]3(C)CC[C@@H]12 [glycyrrhizic acid]
action on the synthesis of proteins, infected cells [1]: practically irrelevant
Viral production after 12 hours (HSV1 [2]; contact 2 hours at 37° C., 12 hours (control 3 × 10^6)): 4.2 × 10^4 PFU/ml
Viral production after 17 hours (HSV1 [2]; contact 2 hours at 37° C., 17 hours (control 5.4 × 10^6)): 1.2 × 10^4 PFU/ml
inhibition at 12 hours from the infection (HSV1 [2]; 12 hours): about 2 logarithms
inhibition at 22 hours from infection (HSV1 [2]; 22 hours): ~3 logarithms
inhibition at 22 hours from infection (%) (HSV1 [2]; 22 hours): 99.9%
decrease in infection (HSV1 [2]; at 12, 17 and 22 hours): strong decrease in infection
inhibition at 200 µg/mL (HSV1 [3]; [12]): 0%
inhibition at 400 µg/mL (HSV1 [3]; [12]): 10 ± 4%
inhibition at 600 µg/mL (HSV1 [3]; [12]): 27 ± 7%
inhibition at 800 µg/mL (HSV1 [3]; [12]): 50 ± 8%
inhibition at 1000 µg/mL (HSV1 [3]; [12]): 75 ± 12%
reduction in the incorporation of glucosamine-H^3, infected cells ([4]; 0.5 mM, infected cells): more than 10%
reduction in the synthesis of glyco-protein in infected cells ([4]; 1 mM, infected cells): 20%
synthesis of viral glycoproteins ([4]; at antiviral doses): largely inhibits
inhibition of viral replication ([5]; 0.5 mM): 50%
reduction of the virus ([5]; 1 mM): 80%
inhibition of production of the virus ([5]; 4 mM): 99%
antiviral activity [5]: a certain antiviral activity
inhibition of incorporation of glucosamine-H^3, normal cells ([6]; 0.5 mM, normal cells): no inhibition
inhibition of the synthesis of glyco-proteins in the control ([6]; 1 mM, control (normal) cells): no inhibition
synthesis of glyco-proteins in the normal cells ([6]; 4 mM, normal cells): slightly altered
cell glycoproteins synthesis ([6]; only at very high doses): only at very high doses does it also inhibit
action on the synthesis of proteins, normal cells [7]: practically irrelevant

lactoferrin
activity against human immunodeficiency virus replication [8]: potent activity
antiviral / antiherpetic (HSV1) activity of lactoferrin (HSV1 [9]): antiherpetic (HSV1) activity
activity against human cytomegalovirus replication (human cytomegalovirus): potent activity

Nc1nc2c(ncn2COCCO)c(=O)[nH]1 [aciclovir]
side effects of oral treatment ([10]; po): nausea, diarrhoea, itching, headaches, renal inadequacies and nephrotoxicity
side effects of topical use [10]: often causes burning and irritation of mucous membranes
efficacy during the first infection ([11]; administered during the first infection): fairly efficient
prevention of re-infection ([11]; re-infection by Herpes Simplex Virus type 1): not preventing re-infection
efficacy in recurring infections ([11]; recurring infections): not very effective

chicken lysozyme: chicken lysozyme supplied by SIGMA
Inhibition (%) of viral plaques with various lysozymes (HSV1 [3]; 0.5 mg/ml): 20 ± 4%
Inhibition (%) of viral plaques with various lysozymes (HSV1 [3]; 1 mg/ml): 49 ± 5%
Inhibition (%) of viral plaques with various lysozymes (HSV1 [3]; 2 mg/ml): 60 ± 6%
Inhibition (%) of viral plaques with various lysozymes (HSV1 [3]; 4 mg/ml): 71 ± 6%
Inhibition (%) of viral plaques with various lysozymes (HSV1 [3]; 6 mg/ml): 82 ± 4%
dose dependence of the action (HSV1 [3]; in words): dose-dependent
formation of herpetic virus plaques on VERO cells (HSV1 [3]; in words): significantly inhibits
